Test results from patent US10584159B2, “Renilla based biosensors for monitoring biomolecule localization and trafficking in cells” (The Royal Institution for the Advancement of …, priority 2014, dated 2020).

Legend:
Format in all cases: cell-based
hMC4R wt = target: T1, hMC4R wt (Homo sapiens, UniProt P32245); assay: BRET pharmacological chaperone rescue / sequestration assay (rGFP-CAAX), hMC4R wt-RlucII; conditions: 10 μM, 16 h
T1 construct: expressed in transfected cells; host or cells: HEK293
T1 sequence (P32245 whole entry): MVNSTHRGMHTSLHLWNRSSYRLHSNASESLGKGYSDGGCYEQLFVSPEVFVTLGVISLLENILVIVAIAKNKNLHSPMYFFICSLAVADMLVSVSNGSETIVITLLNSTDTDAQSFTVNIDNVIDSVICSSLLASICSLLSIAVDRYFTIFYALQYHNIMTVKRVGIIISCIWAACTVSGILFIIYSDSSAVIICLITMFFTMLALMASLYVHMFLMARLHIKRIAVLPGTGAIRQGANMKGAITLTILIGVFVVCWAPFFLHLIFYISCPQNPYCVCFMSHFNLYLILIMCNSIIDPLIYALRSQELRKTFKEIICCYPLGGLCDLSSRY
Protocol: (§1) BRET assay for evaluation of PC rescue of cell surface expression and functionality (sequestration assay). In FIGS. 12A to 18E, Hek293 cells were transiently transfected using PEI as described in this section. The DNA transfected per well of a 96-well plate is as follow: in FIGS. 12A and 12B, with 2.4 ng of hMC4R-RlucII encoding construct and an increasing quantity of rGFP-CAAX (Kras) up to 9.6 ng for FIGS. 12A and for 12B, rGFP-PB up to 9.6 ng; in FIGS. 13A to 13C with 0.6, 1.2 or 2.4 ng of hMC4R-RlucII and 4.8 ng of rGFP-CAAX (Kras); in FIG. 13D with 2.4 ng of polycistronic rGFP-CAAX(Kras)/MC4R-RlucII construct; in FIG. 13E with 1.2 ng of hV2R-RlucII and 4.8 ng of rGFP-CAAX (Kras); in FIGS. 14A to 16B with 2.4 ng of hMC4R-RlucII and 7.2 ng of rGFP-CAAX (Kras); Hek293 cells stably expressing rGFP-CAAX(Kras) were transfected with 0.6, 1.2 or 2.4 ng of hMC4R-RlucII; in FIG. 17A or 0.6, 1.2 or 2.4 ng of hV2R_Y128S-RlucII; in FIG. 17B; in FIGS. 18A and 18B with 0.6, 1.2 or 2.4 ng of hERG-RlucII and 4.8 ng of rGFP-CAAX (Kras); and in FIGS. 18C-18E with 0.6 ng of hERG-RlucII and 7.2 ng of rGFP-CAAX (Kras). […] For the BRET assay, cells were washed once with PBS and left in Tyrode's buffer. […] BRET values were determined by calculating the ratio of the light emitted by the acceptor over the light emitted by the RlucII.

hMC4R (R165Q) = target: T2, hMC4R (R165Q) (Homo sapiens, UniProt P32245, R165Q); assay: BRET pharmacological chaperone rescue / sequestration assay (rGFP-CAAX), hMC4R (R165Q)-RlucII; conditions: 10 μM, 16 h
T2 construct: expressed in transfected cells; host or cells: HEK293
T2 sequence (P32245 whole entry R165Q): as the sequence (P32245 whole entry) above, with R165Q counted along it
Protocol: as §1

hMC4R (P299H) = target: T3, hMC4R (P299H) (Homo sapiens, UniProt P32245, P299H); assay: BRET pharmacological chaperone rescue assay (rGFP-CAAX), hMC4R (P299H)-RlucII; conditions: 10 μM, 16 h
T3 construct: expressed in transfected cells; host or cells: HEK293
T3 sequence (P32245 whole entry P299H): as the sequence (P32245 whole entry) above, with P299H counted along it
Protocol: as §1

[1] = target: T4, Prostaglandin F receptor (FP) (Homo sapiens, UniProt P43088); assay: Unimolecular DAG sensor BRET, FP activation; conditions: FP-transfected HEK293SL, 1 min stimulation, read-out: EC50, DAG produced at the plasma membrane
T4 construct: expressed in transfected cells; host or cells: HEK293SL
T4 sequence (P43088 whole entry): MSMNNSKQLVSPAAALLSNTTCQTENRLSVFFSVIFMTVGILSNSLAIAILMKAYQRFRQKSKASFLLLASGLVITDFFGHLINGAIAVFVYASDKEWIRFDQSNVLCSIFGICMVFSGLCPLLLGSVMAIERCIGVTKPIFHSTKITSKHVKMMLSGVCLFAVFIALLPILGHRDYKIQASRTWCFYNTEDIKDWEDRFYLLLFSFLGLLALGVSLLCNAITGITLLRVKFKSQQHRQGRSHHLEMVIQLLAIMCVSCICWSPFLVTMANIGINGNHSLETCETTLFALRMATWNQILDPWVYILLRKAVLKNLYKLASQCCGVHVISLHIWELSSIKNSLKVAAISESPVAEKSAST
Protocol: (§2) Unimolecular DAG sensor. For FIGS. 22B and C, HEK293SL cells stably expressing hAt1AR (˜50 fmol/mg) were cultured in DMEM supplemented with 10% FBS and 20 μg/ml gentamycin and seeded at a density of 75,000 cells/100 mm dishes and were transiently transfected the next day with 150 ng of construct encoding for the DAG unimolecular sensor, using calcium phosphate method as described previously. 48 h post-transfection, cells were washed and Coel-400a was added to a final concentration of 5 μM and incubated 3 min. […] Data are mean±SD of triplicates of a representative experiment. […] Data are mean±S.E. of six independent experiments. For FIGS. 22D and E, Hek293SL cells were transfected with FuGENE HD, according to Roche's protocol with a ratio of 2:1 fugene:DNA. 10 ng of construct encoding the unimolecular sensor and 400 ng for the receptor (FIGS. 22D, FP and in 2E, GPR14) complemented to 1 ug with ssDNA, were transfected per well of a 6 well plate. 48 h post-transfection, cells were washed, incubated in Tyrode's buffer for 1 h. […] For FIG. 22F, cells were transfected as in FIG. 22D but with just the unimolecular DAG sensor encoding construct. 48 h post-transfection, cells were washed, incubated in Tyrode's buffer for 1 h. […] Cells were then stimulated with 5 μM m-3m3FBS or just vehicle for the indicated time. […] 48 h post-transfection, cells were washed, incubated in Tyrode's buffer for 1 h.

[2] = system: PLC (β2, β3, γ1, γ2, δ1 isoforms); assay: Unimolecular DAG sensor BRET, direct PLC activation; conditions: 5 uM
Protocol: as §2

## CCC(=O)N[C@H](Cc1ccc(Cl)cc1Cl)C(=O)N1CCN(c2ccccc2CNC(C)COC)CC1 (stereo partly drawn) [DCPMP, N-((2R)-3(2,4-dichloroPhenyl)-1-(4-(2-((1-methoxypropan-2-ylamino)methyl)phenyl)piperazin-1-yl)-1-oxopropan-2-yl)propionamide]
hMC4R wt
  PC-mediated rescue of cell surface expression: increase in BRET signal
hMC4R (R165Q)
  PC-mediated rescue of cell surface expression: increase in BRET signal
hMC4R (P299H)
  PC-mediated rescue of cell surface expression: not PC-rescued

## CCCCC[C@H](O)/C=C/[C@H]1[C@H](O)CC(=O)[C@@H]1C/C=C\CCCC(=O)O [PGE2, Prostaglandin E2]
[1]
  EC50: 90 nM

## Cc1cc(C)c(S(=O)(=O)Nc2cccc(C(F)(F)F)c2)c(C)c1 [m-3m3FBS, N-(3-Trifluoromethylphenyl)-2,4,6-trimethylbenzenesulfonamide]
[2]
  BRET response of DAG sensor: increase in BRET
